Where two headings read alike, the source gives them in different places.
What was measured:
[1] = tested on: TLR2 induced IL-6 in peripheral blood mononuclear cells (PBMCs); assay: PBMC TLR2 Induced IL-6 Assay; type: cell-based, human; conditions: IL-6 by ELISA; for EC50: read-out: Cell EC50; for IC50: read-out: Cell IC50
Protocol: PBMC TLR2 Induced IL-6 Assay
Peripheral blood mononuclear cells (PBMCs) were isolated from human blood containing the anti-coagulant EDTA (2.5 mM) by centrifugation over a FICOLL® gradient. PBMCs (250000 cells/well) were cultured in assay media (RPMI with 10% heat inactivated FCS) with compounds for 30 minutes at 37° C. in a 5% CO2 incubator. Following pretreatment with compounds, cells were stimulated for 5 hours with 10 µg/ml lipoteichoic acid (Invivogen, San Diego, Calif.), a TLR2 agonist. At the end of the culture, plates were centrifuged at 1800 rpm for 10 minutes to pellet the cells.

IRAK4 = IRAK4 (Homo sapiens (Human), UniProt Q9NWZ3); assay: IRAK4 Inhibition Assay; type: biochemical
Chain of IRAK4 (Q9NWZ3 whole entry, species assumed): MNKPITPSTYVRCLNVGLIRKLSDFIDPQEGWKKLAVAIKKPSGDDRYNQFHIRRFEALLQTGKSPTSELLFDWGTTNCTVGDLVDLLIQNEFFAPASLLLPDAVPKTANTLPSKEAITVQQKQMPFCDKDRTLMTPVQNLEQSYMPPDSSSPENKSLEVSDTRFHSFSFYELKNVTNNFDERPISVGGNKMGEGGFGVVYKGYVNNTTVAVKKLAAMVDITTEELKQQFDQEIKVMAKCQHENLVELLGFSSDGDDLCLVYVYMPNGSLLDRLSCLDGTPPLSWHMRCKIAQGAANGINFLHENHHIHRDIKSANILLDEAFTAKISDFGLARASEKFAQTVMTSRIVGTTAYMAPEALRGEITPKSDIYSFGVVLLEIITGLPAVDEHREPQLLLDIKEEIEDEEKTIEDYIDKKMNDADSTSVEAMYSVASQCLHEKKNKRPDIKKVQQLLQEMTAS
Protocol: The assays were performed in U-bottom 384-well plates. […] The reaction was initiated by the combination of IRAK4 with substrates and test compounds. The reaction mixture was incubated at room temperature for 60 min. and terminated by adding 45 μL of 35 mM EDTA to each sample. The reaction mixture was analyzed on the Caliper LABCHIP® 3000 (Caliper, Hopkinton, Mass.) by electrophoretic separation of the fluorescent substrate and phosphorylated product.

[2] = Homo sapiens, PBMC, human PBMCs, lipoteichoic acid stimulated
[3] = ATP 500 μM, IRAK4 0.6 nM, read-out: IRAK4 IC50
[4] = Homo sapiens, PBMC, PBMC TLR2 Induced IL-6 Assay, lipoteichoic acid stimulation
[5] = IRAK4 Inhibition Assay, ATP 500 μM, read-out: IRAK4 IC50
[6] = human PBMCs, lipoteichoic acid stimulated

Structure (SMILES) | IC50 (IRAK4; [3]) [nM] | IC50 [1, 4] [nM] | IC50 (IRAK4; [5]) [nM] | EC50 [1, 4] [nM] | also measured
CC(C)Nc1cc(-n2ccc3cc(C#N)cnc32)ncc1C(=O)NCCC1(O)CCCC1 [Example 487] | 2 | – | – | – | EC50 [1, 2]: 34 nM; IC50 [1, 2]: 111 nM
CC(C)Nc1cc(-n2ncc3cc(C#N)cnc32)ncc1C(=O)NCCC1(O)CCC(F)(F)CC1 [Example 279] | – | 247 | 6.5 | – | –
CC(=O)N[C@H]1CC[C@H](NC(=O)c2cnc(-n3ccc4cc(C#N)cnc43)cc2NC2CC2)CC1 [Example 87, N-((trans)-4-acetamidocyclohexyl)-6-(5-cyano-1H-pyrrolo[2,3-b]pyridin-1-yl)-4-(cyclopropylamino)nicotinamide] | – | – | 1.9 | 63 | –
CC(C)(O)[C@H](F)CNC(=O)c1cnc(-n2ccc3cc(C#N)cnc32)cc1Nc1ccc2nc[nH]c2c1 [Example 439] | 2.6 | – | – | – | EC50 [1, 2]: 73 nM
CC(C)Nc1cc(-n2ncc3cc(C#N)cnc32)ncc1C(=O)N[C@@H]1CC[C@@H](C(C)(C)O)OC1 [Example 296] | – | 412 | 7.1 | – | –
CCNc1cc(-n2ccc3cc(C#N)cnc32)ncc1C(=O)N[C@H]1CC[C@H](C(C)(C)O)CC1 [Example 100, 6-(5-cyano-1H-pyrrolo[2,3-b]pyridin-1-yl)-4-(ethylamino)-N-((trans)-4-(2-hydroxypropan-2-yl)cyclohexyl)nicotinamide] | – | – | 2.5 | 95 | –
CC(C)(O)[C@H]1CC[C@H](NC(=O)c2cnc(-n3ccc4cc(C#N)cnc43)cc2NC2CC2)CC1 [Example 429] | 1.5 | – | – | – | EC50 [1, 2]: 92 nM
CC(C)(O)[C@H](F)CNC(=O)c1cnc(-n2ccc3cc(C#N)cnc32)cc1NC1CCCC(F)(F)C1O (single isomer, unassigned) [Example 112] | – | – | – | 159 | IC50 (IRAK4; IRAK4 IC50): 4.4 nM
CC(C)Nc1cc(-n2cnc3cc(C#N)cnc32)ncc1C(=O)NC[C@@H](F)C(C)(C)F [Example 342] | – | 423 | 8.7 | – | –
CC(C)(O)[C@H](F)CNC(=O)c1cnc(-n2cnc3cc(C#N)cnc32)cc1Nc1cnn(C(F)F)c1 [Example 401] | 5.7 | – | – | – | IC50 [1, 2]: 485 nM
CCCn1cc(Nc2cc(-n3cnc4cc(Cl)cnc43)ncc2C(=O)NC[C@@H](F)C(C)(C)O)cn1 [Example 382] | – | 482 | 2.5 | – | –
CC(C)Nc1cc(-n2ncc3cc(C#N)cnc32)ncc1C(=O)NC[C@@H](F)C(O)C(C)C (single isomer, unassigned) [Example 232] | – | 211 | 2.3 | 33 | –
CC(C)Nc1cc(-n2ccc3cc(C#N)cnc32)ncc1C(=O)NCCNS(=O)(=O)N1CCOCC1 [Example 452] | 5.2 | – | – | – | EC50 [1, 2]: 700 nM; IC50 [1, 2]: 252 nM
Cc1cc(Nc2cc(-n3ncc4cc(C#N)cnc43)ncc2C(=O)NC[C@@H](F)C(C)(C)O)[nH]n1 [Example 405] | 6.2 | – | – | – | IC50 [1, 2]: 561 nM
CC(C)Nc1cc(-n2ccc3cnc(NCCO)nc32)ncc1C(=O)NC[C@@H](F)C(C)(C)O [Example 188, (R)—N-(2-fluoro-3-hydroxy-3-methylbutyl)-6-(2-((2-hydroxyethyl)amino)-7H-pyrrolo[2,3-d]pyrimidin-7-yl)-4-(isopropylamino)nicotinamide] | – | – | 1.7 | 57 | –
CC(C)(O)[C@H](F)CNC(=O)c1cnc(-n2ccc3cc(C#N)cnc32)cc1NC1CCC(NCC(F)(F)F)C1 (some centres unmarked) [Example 489] | 4.3 | – | – | – | EC50 [1, 6]: 318 nM; IC50 [1, 6]: 1700 nM
CC(CCF)Nc1cc(-n2ccc3cc(C#N)cnc32)ncc1C(=O)NC[C@@H](F)C(C)(C)O (single isomer, unassigned) [Example 426] | 1.6 | – | – | – | EC50 [1, 2]: 51 nM
CNC(=O)[C@H]1CC[C@H](NC(=O)c2cnc(-n3ncc4cc(C#N)cnc43)cc2NC2CC2)CC1 [Example 140, 6-(5-cyano-1H-pyrazolo[3,4-b]pyridin-1-yl)-4-(cyclopropylamino)-N-((trans)-4-(methylcarbamoyl)cyclohexyl)nicotinamide] | – | – | 8.3 | 226 | –
CC(C)(O)[C@H](F)CNC(=O)c1cnc(-n2ccc3cc(C#N)cnc32)cc1NC12CC3CC(CC(C3)C1)C2 [Example 13, 4-((1s,3S)-adamantan-1-ylamino)-6-(5-cyano-1H-pyrrolo[2,3-b]pyridin-1-yl)-N—((R)-2-fluoro-3-hydroxy-3-methylbutyl)nicotinamide] | – | – | 12 | 346 | –
CC(C)Nc1cc(-n2ccc3cc(CNC(=O)CC4CCCCC4)cnc32)ncc1C(=O)NC[C@@H](F)C(C)(C)O [Example 511] | 5.4 | – | – | – | IC50 [1, 2]: 47 nM
Cn1cc(-c2ccc(Nc3cc(-n4ncc5cc(C#N)cnc54)ncc3C(=O)NC[C@@H](F)C(C)(C)O)cc2)cn1 [Example 531] | 2.2 | – | – | – | IC50 [1, 2]: 67 nM

Structure (SMILES) | IC50 (IRAK4; [3]) [nM] | IC50 [1, 4] [nM] | IC50 (IRAK4; [5]) [nM] | EC50 [1, 4] [nM] | also measured
CC(C)(CO)Nc1cc(-n2ncc3cc(C#N)cnc32)ncc1C(=O)NC[C@@H](F)C(C)(C)O [Example 234] | – | 1360 | 4.7 | 128 | –
CC(C)Nc1cc(-n2ccc3cc(C#N)cnc32)ncc1C(=O)NCCCOC(C)(C)C [Example 15, N-(3-(tert-butoxy)propyl)-6-(5-cyano-1H-pyrrolo[2,3-b]pyridin-1-yl)-4-(isopropylamino)nicotinamide] | – | – | 5.5 | 171 | –
CC(C)Nc1cc(-n2ccc3cc(C#N)cnc32)ncc1C(=O)NC12CCC(O)(CC1)C2 [Example 415] | 14.8 | – | – | – | EC50 [1, 2]: 286 nM
CC(C)(O)CNc1cc(-n2ccc3cc(Cl)cnc32)ncc1C(=O)NC[C@@H](F)C(C)(C)O [Example 35, (R)-6-(5-chloro-1H-pyrrolo[2,3-b]pyridin-1-yl)-N-(2-fluoro-3-hydroxy-3-methylbutyl)-4-((2-hydroxy-2-methylpropyl)amino)nicotinamide] | – | 452 | 2.1 | 117 | –
CC(C)Nc1cc(-n2ncc3cc(C#N)cnc32)ncc1C(=O)NCCc1ccc(F)cc1 [Example 260] | – | 159 | 3.3 | – | –
CC(F)(CO)CNc1cc(-n2ncc3cc(C#N)cnc32)ncc1C(=O)NC[C@@H](F)C(C)(C)O (mixture of isomers) [Example 575] | 11.8 | – | – | – | IC50 [1, 2]: 587 nM
CCCC(=O)NCc1cnc2c(ccn2-c2cc(NC(C)C)c(C(=O)NC[C@@H](F)C(C)(C)O)cn2)c1 [Example 510] | 3.2 | – | – | – | IC50 [1, 2]: 250 nM
CC(C)(O)[C@H](F)CNC(=O)c1cnc(-n2ncc3cc(C#N)cnc32)cc1NC1CN(c2ncc(F)cn2)C1 [Example 539] | 6.3 | – | – | – | EC50 [1, 2]: 256 nM
CC(C)CC(O)[C@H](C)Nc1cc(-n2ccc3cc(C#N)cnc32)ncc1C(=O)NC[C@@H](F)C(C)(C)O (single isomer, unassigned) [Example 496] | 10.9 | – | – | – | IC50 [1, 2]: 197 nM
CC(C)(O)[C@H](F)CNC(=O)c1cnc(-n2ncc3cc(C#N)cnc32)cc1NC1COC1 [Example 546] | 3.7 | – | – | – | EC50 [1, 2]: 257 nM
CS(=O)(=O)NCCNC(=O)c1cnc(-n2ccc3cc(C#N)cnc32)cc1NC1CC1 [Example 453] | 4.4 | – | – | – | EC50 [1, 2]: 213 nM; IC50 [1, 2]: 326 nM
CC(C)(O)[C@H](F)CNC(=O)c1cnc(-n2ncc3cc(C#N)cnc32)cc1Nc1cnn(C2COC2)c1 [Example 348] | – | 489 | 1.8 | – | –
CC(C)CCNC(=O)c1cnc(-n2ncc3cc(C#N)c(N)nc32)cc1NC(C)C [Example 303] | – | 176 | 3.5 | – | –
CC(C)Nc1cc(-n2ncc3cc(C#N)cnc32)ncc1C(=O)NC[C@H](F)C(C)(C)O [Example 196] | – | 328 | 10.4 | 304 | –
CC(C)Nc1cc(-n2ncc3cc(C#N)cnc32)ncc1C(=O)NC1CCc2nc(N)sc2C1 (centres unmarked) [Example 165, N-(2-amino-4,5,6,7-tetrahydrobenzo[d]thiazol-6-yl)-6-(5-cyano-1H-pyrazolo[3,4-b]pyridin-1-yl)-4-(isopropylamino)nicotinamide] | – | – | 9.1 | 172 | –
CC(C)(O)[C@H](F)CNC(=O)c1cnc(-n2ncc3cc(F)cnc32)cc1Nc1cnn(CC(F)F)c1 [Example 384] | – | 24 | 2.3 | – | –
CC(C)Nc1cc(-n2ncc3cc(C#N)cnc32)ncc1C(=O)NCCc1ccc(S(N)(=O)=O)cc1 [Example 251] | – | – | 3.1 | 311 | –
CC(=O)Nc1ccc(CCNC(=O)c2cnc(-n3ncc4cc(C#N)cnc43)cc2NC(C)C)cc1 [Example 270] | – | 348 | 1.6 | – | –
CCCn1cc(Nc2cc(-n3ncc4cc(Cl)cnc43)ncc2C(=O)NC[C@@H](F)C(C)(C)O)cn1 [Example 381] | – | 41 | 2.5 | – | –
CC(C)Nc1cc(-n2ncc3cc(C#N)cnc32)ncc1C(=O)NCC(F)=C1CCOCC1 [Example 294] | – | 292 | 13.4 | – | –
CC(C)(O)[C@H](F)CNC(=O)c1cnc(-n2ncc3cc(C#N)cnc32)cc1N[C@@H]1CCN(c2ncccn2)C1 [Example 537] | 6.8 | – | – | – | EC50 [1, 2]: 159 nM

From patent publication US9169252B2 (BRISTOL-MYERS SQUIBB COMPANY, priority 2014, dated 2015)
